Reference: PubChem BioAssay AID2765 (Broad Institute, 2010)
Calls of active or inactive are those of the source.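 The calls were made as follows: active = half-maximal concentration for the rise in caspase light signal at or below ten times the top tested dose; inconclusive = flat fit between 30% and 70% activity, or unreliable curve fit; inactive = the rest.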

System: MEF A1-2A-BIM cells, caspase 3/7 luminescence, 3 h
Experiment: inducers of caspase signal in A1-dependent MEFs – cell-based, luminescence, retest, A1 inhibitor project, dose response (AID 2765)

Row | SMILES | EC50
1 | COCCCn1cc(C(=O)c2cc(OC)ccc2OCC(=O)N2CCCCC2C)cc(C#N)c1=O (centres undefined) | > 35 µM (inactive)
2 | COc1ccc(NC(=O)C(NC(C)=O)C(=O)NCc2ccccc2Cl)cc1 (centres undefined) | > 35 µM (inactive)
3 | O=C(Nc1ccc(Br)cn1)c1cccc2c1-c1ccccc1C2=O | > 35 µM (inactive)
4 | Cc1cc(NC(=O)CN(C)C)c([N+](=O)[O-])cc1C | > 35 µM (inactive)
5 | O=C(Nc1ccc([N+](=O)[O-])cc1)C(Cc1ccccc1)N1C(=O)c2cccc3cccc(c23)C1=O (centres undefined) | > 35 µM (inactive)
6 | O=C(Cn1ncc(Cl)c(Cl)c1=O)NCC1CCCCC1 | > 35 µM (inactive)
7 | Cc1n[nH]c(C)c1S(=O)(=O)N1CCC(C(=O)O)CC1 | > 35 µM (inactive)
8 | Cc1c(Cl)cccc1NC(=O)[C@@]1(CC(=O)O)CC(/C=C/c2ccccc2)=NO1 | > 35 µM (inactive)
9 | CCCCCC(=O)N1CCCC1 | > 35 µM (inactive)
10 | CC1(C)C[C@H](O)[C@]2(CO)[C@H](O)C[C@]3(C)C(=CCC4[C@@]5(C)CC[C@H](O)C(C)(C)C5CC[C@]43C)[C@@H]2C1 (some centres undefined) | > 35 µM (inactive)
11 | CCOc1cc(/C=N/N=C(\N)c2nonc2N)cc(Br)c1OCc1cccc2ccccc12 | 28 µM
12 | CC(Sc1nc(-c2ccccc2)cc(C(F)(F)F)n1)C(=O)N1CCCCC1 (centres undefined) | > 35 µM (inactive)
13 | COc1ccc(-c2nn(-c3ccccc3)cc2/C=C/C(=O)OCC(=O)Nc2ccccc2C#N)cc1 | 21.2 µM
14 | COC(=O)[C@@]1(C)CC[C@]2(C)CC[C@@]3(C)C(=CC(=O)C4[C@@]5(C)CC[C@H](O)C(C)(C)[C@@H]5CC[C@]43C)[C@H]2C1 (some centres undefined) | > 35 µM (inactive)
15 | CN1C(=O)[C@H]2[C@@H](C3CC3)N3C(=O)CN(Cc4ccc(-c5ccccc5)cc4)C(=O)[C@@]3(C)[C@H]2C1=O | > 35 µM (inactive)
16 | O=C1C(=O)c2ccc(-c3ccccc3)cc2-c2ccccc21 | > 35 µM (inactive)
17 | CC(C)=C1C2C=CC1C1C(=O)N(c3ccc4c(c3)OCO4)C(=O)C21 (centres undefined) | > 35 µM (inactive)
18 | COC(=O)C1=C(c2ccc(F)cc2F)C[C@@H]2CC[C@H]1N2C(=O)N1CCC(O)CC1 | > 35 µM (inactive)
19 | CCCNC(=O)C(Cc1ccccc1)NC(=O)Cc1ccccc1 (centres undefined) | > 35 µM (inactive)
20 | COc1ccc(N2CCN(C(=O)CCn3nnc4ccccc43)CC2)cc1 | > 35 µM (inactive)
21 | CCN(CC(=O)Nc1c(F)cccc1F)C(=O)/C=C/c1ccc(C)cc1 | > 35 µM (inactive)
22 | CCCCc1ccc(S(=O)(=O)NC2CCS(=O)(=O)C2)cc1 (centres undefined) | > 35 µM (inactive)
23 | S=C(Nc1ccccc1)N1N=C(c2cccs2)CC1c1cccs1 (centres undefined) | > 35 µM (inactive)
24 | O=C(CS(=O)c1ccc(C(F)(F)F)cc1[N+](=O)[O-])Oc1ccccc1 (centres undefined) | > 35 µM (inactive)

Row | SMILES | EC50
25 | CN1CCN(CCNC(=O)Nc2ccc(Cl)cc2)CC1 | > 35 µM (inactive)
26 | CC(=O)Nc1ccc([N+](=O)[O-])c(CS(=O)(=O)c2ccc(C)cc2)c1[N+](=O)[O-] | > 35 µM (inactive)
27 | O=S1(=O)C=C(Sc2nc3ccccc3s2)c2ccccc21 | > 35 µM (inactive)
28 | CCN(CC)C(=O)CCCc1c[nH]c2ccccc12 | > 35 µM (inactive)
29 | CC1CCCCC12NC(=O)N(CC(=O)c1ccc(Cl)s1)C2=O (centres undefined) | > 35 µM (inactive)
30 | CCNC(=O)/C(C#N)=C/c1c(N2CCN(C)CC2)nc2c(C)cccn2c1=O | > 35 µM (inactive)
31 | NC(=S)NNC(=O)/C(=C/c1ccc(Br)cc1)NC(=O)c1ccccc1 | > 35 µM (inactive)
32 | O=P(C(c1c[nH]c2ccccc12)N1CCOCC1)(N1CCOCC1)N1CCOCC1 (centres undefined) | > 35 µM (inactive)
33 | CC(C)C(=O)Nc1cc(S(=O)(=O)N2CCOCC2)ccc1N1CCCCC1 | > 35 µM (inactive)
34 | CCN1C(=O)/C(=C2\Sc3ccccc3N2CC)OC1=S | > 35 µM (inactive)
35 | COC(=O)C(Cc1ccccc1)OS(N)(=O)=O (centres undefined) | > 35 µM (inactive)
36 | CCN(CC)C(=O)Oc1ccc(Br)c2ccccc12 | > 35 µM (inactive)
37 | Cc1cccc(C)c1NC(=O)CSc1nc(C)c(CC(=O)c2ccc(Br)cc2)c(C)c1C#N | 30.2 µM
38 | Cc1ccc(S(=O)(=O)c2nnn3c2nc(Nc2cccc(C)c2)c2ccccc23)cc1 | > 35 µM (inactive)
39 | CC1(C)c2cc(O)ccc2OC1N1CCOCC1 (centres undefined) | > 35 µM (inactive)
40 | CSc1ccc(C(c2c(C)[nH][nH]c2=O)c2c(C)[nH][nH]c2=O)cc1 | > 35 µM (inactive)
41 | Cc1ccc(CCC(=O)Nc2ccc(Br)cc2)o1 | > 35 µM (inactive)
42 | CC(=O)Nc1ccc(NC(=O)C(C)OC(=O)/C=C/c2cn(-c3ccccc3)nc2-c2cccnc2)cc1 (centres undefined) | 17.1 µM
43 | CN1C2CCC1/C(=C/c1ccccn1)C(=O)/C2=C\c1ccccn1 | > 35 µM (inactive)
44 | CC(C)(C)[C@H](N)C(=O)N[C@H]1CCC2C3CC=C4C[C@@H](O)CC[C@]4(C)C3CC[C@@]21C (some centres undefined) | > 35 µM (inactive)
45 | CCc1ccc(N(CC)C(=O)c2cn(C)c(=O)c3ccccc23)cc1 | > 35 µM (inactive)
46 | O=C(CN1CCN(Cc2ccccc2)CC1)Nc1ccc(Br)cc1 | > 35 µM (inactive)
47 | COc1ccccc1NC(=O)c1ccc(S(=O)(=O)N2CCCC2)cc1 | > 35 µM (inactive)
48 | CCc1ccc(C2C3=C(CC(C)(C)CC3=O)Nc3c2c(=O)[nH]c2nc(C)nn32)cc1 (centres undefined) | > 35 µM (inactive)

Row | SMILES | EC50
49 | CN1CCN(c2nccc3c2ncn3C)CC1 | > 35 µM (inactive)
50 | CC(=O)N1CCN(C(=S)c2ccc([N+](=O)[O-])cc2)CC1 | > 35 µM (inactive)
51 | Cc1ccc(S(=O)(=O)N(C)Cc2ccc(C(=O)N/N=C/c3ccc(OC(F)F)cc3)cc2)cc1 | > 35 µM (inactive)
52 | COc1cc(NS(=O)(=O)c2cc(C(=O)NCCc3ccccn3)ccc2OC)cc(OC)c1 | > 35 µM (inactive)
53 | CCN(CC)S(=O)(=O)c1cc(C(=O)Nc2ccccc2[N+](=O)[O-])ccc1Cl | > 35 µM (inactive)
54 | COCc1cccc(NC(=O)CCc2ccccc2)c1 | > 35 µM (inactive)
55 | C[C@H](CO)N1C[C@H](C)[C@@H](CN(C)CC2CCCCC2)Oc2c(NS(=O)(=O)c3cccs3)cccc2C1=O | > 35 µM (inactive)
56 | COc1cc(CN2CCCC(C(=O)Nc3ccccc3Oc3cccnc3)C2)ccc1F (centres undefined) | > 35 µM (inactive)
57 | Cc1cccc(/C=N/NC(=O)c2cc3c(s2)-c2ccccc2CC3)c1 | > 35 µM (inactive)
58 | CCC(=O)N/C(N)=N/c1nc(C)c2cc(C)c(C)cc2n1 | > 35 µM (inactive)
59 | COc1ccc(N/C(=N/c2nc(C)cc(C)n2)NC(=O)Nc2ccc(Cl)c(Cl)c2)c(OC)c1 | > 35 µM (inactive)
60 | FC(F)(F)c1cccc(Cc2noc(CN3CCCC(OCc4ccccn4)C3)n2)c1 (centres undefined) | > 35 µM (inactive)
61 | O=C(O)c1ccc2c(c1)C(=O)N(c1ccc(Cl)cn1)C2=O | > 35 µM (inactive)
62 | Cc1cc(=O)oc2cc(OCCC[n+]3ccccc3)ccc12 | > 35 µM (inactive)
63 | O=C(Cn1c(=O)c2cccn2c2cccnc21)N1CCN(c2ccc(Cl)cc2)CC1 | > 35 µM (inactive)
64 | CC1Cc2ccccc2N1C(=O)c1ccc2c(c1)nnn2C (centres undefined) | > 35 µM (inactive)
65 | COc1ccc2[nH]c3c(=O)n(/N=C/[C@H]4C(C)C=C(C)CC4C)c(=O)[nH]c3c2c1 (some centres undefined) | 16 µM
66 | COc1ccc(NC(=O)c2oc3ccccc3c2NC(=O)C2CC2)cc1 | > 35 µM (inactive)
67 | O=C(c1ccccc1Br)N(Cc1ccccc1)c1ccccc1 | > 35 µM (inactive)
68 | CCOc1ccc(NC(=O)CSc2nnc(Cc3cccn3C)n2-c2ccc(F)cc2)cc1 | > 35 µM (inactive)
69 | Cc1cc(C(=O)CCl)c(C)n1CCc1ccc(Cl)cc1 | > 35 µM (inactive)
70 | CC1(C(=O)NCC2CC2)C=CC2(CCCCC2)N1C(=O)c1ccccc1 (centres undefined) | > 35 µM (inactive)
71 | CCOc1ccc(-c2ccc(NS(=O)(=O)c3ccc([N+](=O)[O-])cc3)cc2)nn1 | > 35 µM (inactive)
72 | COc1ccc(CN2CCCCC2C)cc1C (centres undefined) | > 35 µM (inactive)

Row | SMILES | EC50
73 | CCn1c(SCC(=O)c2ccccc2)nnc1-c1cc2cc(Br)ccc2o1 | > 35 µM (inactive)
74 | COc1ccc(S(=O)(=O)N(C)C[C@H]2Oc3ccc(NC(=O)Nc4c(C)noc4C)cc3C(=O)N([C@H](C)CO)C[C@@H]2C)cc1 | > 35 µM (inactive)
75 | O=C(CCCCCn1c(=S)[nH]c2ccsc2c1=O)NC1CCCCC1 | > 35 µM (inactive)
76 | O=C(NCCCNc1ccc(C(F)(F)F)cc1[N+](=O)[O-])c1ccc(F)cc1 | > 35 µM (inactive)
77 | Cc1[nH]n(-c2cccc(Cl)c2)c(=O)c1C=NC12CN3CN(CN(C3)C1)C2 | > 35 µM (inactive)
78 | C=CC[C@@H](CC(=O)N[C@@H](CO)Cc1ccccc1)C(=O)N[C@H](COC(=O)[C@H](CC=C)CC(=O)OC(C)(C)C)Cc1ccccc1 | > 35 µM (inactive)
79 | O=C(Cc1cccc([N+](=O)[O-])c1)Nc1cccc(C(=O)N2CCOCC2)c1 | > 35 µM (inactive)
80 | O=[N+]([O-])c1ccccc1S(=O)(=O)N1CCN(S(=O)(=O)c2ccc3c(c2)OCCO3)CC1 | > 35 µM (inactive)
81 | O=C(c1ccccc1)N1CCN(S(=O)(=O)c2ccccc2)CC1 | > 35 µM (inactive)
82 | CCC(NC(=O)c1cccc(Cn2cc([N+](=O)[O-])cn2)c1)c1ccc(C(C)C)cc1 (centres undefined) | > 35 µM (inactive)
83 | CCOC(=O)CN(Cc1ccccc1)C(=O)OC(C)(C)C | > 35 µM (inactive)
84 | CC(C)CC(=O)Nc1ccc2c(c1)OCO2 | > 35 µM (inactive)
85 | COc1cc(/C=C(/C#N)c2nc3ccccc3[nH]2)ccc1OCC(=O)Nc1ccccc1C | 4.3 µM
86 | C=CC[N+]1(CC=C)CCOCC1 | > 35 µM (inactive)
87 | O=C(CSc1ccc(F)cc1)Nc1ccc(C2SCCS2)cc1 | > 35 µM (inactive)
88 | O=[N+]([O-])c1ccc(CN2CCOCCOCCOCC2)cc1 | > 35 µM (inactive)
89 | CCOC(=O)CCCNS(=O)(=O)c1c(C)ccc2nsnc12 | > 35 µM (inactive)
90 | O=C1NCCCC1C(=O)N/N=C/c1cccc([N+](=O)[O-])c1 (centres undefined) | > 35 µM (inactive)
91 | CCOC(=O)c1c(NC(=O)C2C3C=CC(C3)C2C(=O)O)sc2c1CCCC2 (centres undefined) | > 35 µM (inactive)
92 | Cn1nnnc1Sc1ncnc2scc(-c3cccc4c3sc3ccccc34)c12 | > 35 µM (inactive)
93 | COc1ccc(S(N)(=O)=O)cc1C(=O)OCCCOc1ccc(F)cc1 | > 35 µM (inactive)
94 | COc1ccc(C2Nc3ccc4ccccc4c3-c3c2c(=O)oc2ccccc32)cc1 (centres undefined) | 11 µM
